This is an account of results in ChEMBL document CHEMBL1156554, “Aminoquinazolines as TRPV1 antagonists: modulation of drug-like properties through the exploration of 2-position substitution” (Bioorg Med Chem Lett, 2008).

As a reminder, the AUC(0-inf) is the area under the concentration-time curve extrapolated to infinity. The low end stands for less exposure, the high end for more exposure. By Tmax is commonly meant the time from dosing to the highest level. The term Cmax denotes the peak of the concentration-time curve. As a reminder, the pKa is the pH at which an ionisable group is half protonated. High values mean a group that holds its proton tightly, low ones a group that gives up its proton readily. By clearance is commonly meant the rate of elimination divided by the concentration. A lower clearance goes with a low capacity for elimination. By half-life is commonly meant the time in which the quantity being followed falls by half. A high value points to slow decline. One may read the bioavailability as the share of a dose that reaches the circulation, judged against a reference dose that is usually intravenous. As usually defined, the Kp is the ratio of the level in a tissue or fluid to that in plasma or blood.

Series [1] in a line: AUC (0 to infinity) in rat at 2.0 mg/kg, po dosed in 0.5% methylcellulose, 0.1% triacetin. Type of series: ADME, organism-based. On the set-up: time infinity, dose 2 mg/kg, route oral. Particulars: in vivo.
A short description of series [2]: Tmax in rat at 2.0 mg/kg, po dosed in 0.5% methylcellulose, 0.1% triacetin. Format: ADME, organism-based. The arrangement: dose 2 mg/kg, route oral. As to conditions: in vivo.
Series [3] in a line: Cmax in rat at 2.0 mg/kg, po dosed in 0.5% methylcellulose, 0.1% triacetin. Format: ADME, organism-based. The arrangement: dose 2 mg/kg, route oral. As to conditions: in vivo.
The nature of series [4]: Dissociation constant, pKa of the compound. Format: physicochemical.
The test system of series [5] is Liver microsomes. Briefly: Metabolic stability in human liver microsomes at 1 uM. Type of series: ADME, Microsome.
Series [6] has as its system Liver microsomes. The series can be described thus: Metabolic stability in rat liver microsomes at 1 uM. Type of series: ADME, Microsome. In general terms: Liver microsomes are vesicles of endoplasmic reticulum, rich in cytochrome P450 enzymes.
A short description of series [7]: Chemical stability in 0.1 N HCl after 4 hrs. Type of series: physicochemical. Particulars: read-out: Activity.
Series [8] can be described thus: Clearance in rat at […], iv dosed in 50% PEG-400/water. As to conditions: in vivo. Format: ADME, organism-based. The arrangement: dose 1.5 mg/kg, route intravenous.
Series [9] can be described thus: Volume of distribution at steady state in rat at […], iv dosed in 50% PEG-400/water. As to conditions: in vivo, read-out: Vdss. Type of series: ADME, organism-based. On the set-up: dose 1.5 mg/kg, route intravenous.
Series [10] can be described thus: Half life in rat at […], iv dosed in 50% PEG-400/water. Type of series: ADME, organism-based. The arrangement: dose 1.5 mg/kg, route intravenous. As to conditions: in vivo.
The nature of series [11]: Bioavailability in rat at 2.0 mg/kg, po dosed in 0.5% methylcellulose, 0.1% triacetin. Type of series: ADME, organism-based. Particulars: in vivo.
Series [12] is described as follows: Bioavailability in rat at […], po dosed in 0.5% methylcellulose, 0.1% triacetin. Format: ADME, organism-based. Particulars: in vivo.
The nature of series [13]: AUC (0 to infinity) in rat at 2.0 mg/kg, po dosed in 2% D-alpha-tocopheryl polyethylene glycol 1000 succinate. Format: ADME, organism-based. The arrangement: dose 2 mg/kg, route oral, time infinity. Particulars: plasma.
The nature of series [14]: AUC (0 to infinity) in rat at […], po dosed in 0.5% methylcellulose, 0.1% triacetin. As to conditions: in vivo. The arrangement: time infinity, dose 2.1 mg/kg, route oral. Type of series: ADME, organism-based.
Series [15] is described as follows: Tmax in rat at 2.0 mg/kg, po dosed in 2% D-alpha-tocopheryl polyethylene glycol 1000 succinate. The arrangement: dose 2 mg/kg, route oral. As to conditions: in vivo. Format: ADME, organism-based.
Series [16] can be described thus: Tmax in rat at […], po dosed in 0.5% methylcellulose, 0.1% triacetin. Type of series: ADME, organism-based. On the set-up: dose 2.1 mg/kg, route oral. Particulars: in vivo.
Series [17] can be described thus: Cmax in rat at 2.0 mg/kg, po dosed in 2% D-alpha-tocopheryl polyethylene glycol 1000 succinate. Format: ADME, organism-based. The arrangement: dose 2 mg/kg, route oral. Particulars: in vivo.
Series [18] is described as follows: Cmax in rat at […], po dosed in 0.5% methylcellulose, 0.1% triacetin. Format: ADME, organism-based. On the set-up: dose 2.1 mg/kg, route oral. As to conditions: in vivo.
Series [19] is described as follows: (§1) Bioavailability in rat at 2.0 mg/kg, po dosed in 2% D-alpha-tocopheryl polyethylene glycol 1000 succinate. Format: ADME, organism-based. As to conditions: in vivo.
Series [20] is described as follows: Ratio of drug level in brain to plasma in rat at 3 mg/kg, po after 4 hrs. Format: ADME, organism-based. On the set-up: dose 3 mg/kg, route oral.
Series [21] is described as follows: Clearance in rat at 1.0 mg/kg, iv dosed in 50% PEG-400/water. The arrangement: dose 1 mg/kg, route intravenous. Particulars: in vivo. Format: ADME, organism-based.
A short description of series [22]: Volume of distribution at steady state in rat at 1.0 mg/kg, iv dosed in 50% PEG-400/water. Format: ADME, organism-based. On the set-up: dose 1 mg/kg, route intravenous. As to conditions: in vivo, read-out: Vdss.
Series [23] can be described thus: Half life in rat at 1.0 mg/kg, iv dosed in 50% PEG-400/water. The arrangement: dose 1 mg/kg, route intravenous. Particulars: in vivo. Format: ADME, organism-based.
The nature of series [24]: Clearance in rat at 2.7 mg/kg, iv dosed in 50% PEG-400/water. Format: ADME, organism-based. The arrangement: dose 2.7 mg/kg, route intravenous. Particulars: in vivo.
A short description of series [25]: Volume of distribution at steady state in rat at 2.7 mg/kg, iv dosed in 50% PEG-400/water. The arrangement: dose 2.7 mg/kg, route intravenous. Format: ADME, organism-based. As to conditions: in vivo, read-out: Vdss.
The nature of series [26]: Half life in rat at 2.7 mg/kg, iv dosed in 50% PEG-400/water. Particulars: in vivo. Format: ADME, organism-based. The arrangement: dose 2.7 mg/kg, route intravenous.
A further series concerns Rattus norvegicus. The series is described as §1. Type of series: ADME, organism-based. Particulars: in vivo.

Turning to `C[C@@H]1CN(Cc2nc(Nc3ccc(C(F)(F)F)nc3)c3ccc(-c4ncccc4C(F)(F)F)cc3n2)C[C@H](C)O1`, the AUC(0-inf) in series [1] stood at 218 ng·h/mL. Further, the Tmax in series [2] was found to be 0.9 h. The molecule also yielded a peak concentration (Cmax) in series [3] of 93 ng/mL.

On to `CC1CN(Cc2nc(Nc3ccc(C(F)(F)F)cc3)c3ccc(-c4ncccc4C(F)(F)F)cc3n2)CC(C)O1` (stereo not drawn), for which, in [4], the pKa worked out at 7.51.

`FC(F)(F)c1ccc(Nc2nc(CCCN3CCOCC3)nc3cc(-c4ncccc4C(F)(F)F)ccc23)cc1` had a pKa in series [4] of 7.86.

As to `FC(F)(F)c1ccc(Nc2ncnc3cc(-c4ncccc4C(F)(F)F)ccc23)nc1`, in series [4], the pKa came to 3.26. Further, the Stability entry in the series with Liver microsomes [5] and in the series with Liver microsomes [6] was “Stable” each time. In addition, in series [7], the remaining at 4 h worked out at 57%. The clearance in [8] was determined as 4.2 mL/min/kg. Further, the Vd in series [9] amounted to 12 L/kg. The half-life in series [10] was 38 h. In addition, in series [1], the AUC(0-inf) was 7620 ng·h/mL. In series [2], the Tmax stood at 5.7 h. The molecule further gave a Cmax in series [3] of 137 ng/mL. In series [11], this molecule returned a bioavailability of 89%.

Turning to `CCOCc1nc(Nc2ccc(C(F)(F)F)nc2)c2ccc(-c3ncccc3C(F)(F)F)cc2n1`, the Stability entry with Liver microsomes [5] and in the series on Liver microsomes [6] was “Stable” throughout.

For the molecule `CN1CCN(Cc2nc(Nc3ccc(C(F)(F)F)cc3)c3ccc(-c4ncccc4C(F)(F)F)cc3n2)CC1`, in [4], the pKa came to 7.68.

Turning to `FC(F)(F)c1ccc(Nc2nc(CN3CCOCC3)nc3cc(-c4ncccc4C(F)(F)F)ccc23)nc1`, the Stability result in the series with Liver microsomes [5] and in the series with Liver microsomes [6] was “Stable” each time.

With `FC(F)(F)c1ccc(Nc2ncnc3cc(-c4ncccc4C(F)(F)F)ccc23)cn1`, the bioavailability in series [12] stood at 61%; in series [19], 94%. Moreover, in [4], the pKa was found to be 3.48. The Stability result in the series with Liver microsomes [5] and with Liver microsomes [6] was “Stable” each time. Also, the clearance in [8] came out at 22 mL/min/kg. In addition, the Vd in [9] was 5.5 L/kg. The half-life in series [10] was 4.2 h. Also, the AUC(0-inf) in series [13] stood at 1450 ng·h/mL; in series [14], 982 ng·h/mL. The Tmax in series [15] is 1.7 h; in series [16] it was 1.8 h. Besides, the results for the Cmax in series [17] and in series [18] were 211 ng/mL and 137 ng/mL, respectively.

In the case of `COCc1nc(Nc2ccc(C(F)(F)F)cc2)c2ccc(-c3ncccc3C(F)(F)F)cc2n1`, in [20], the Kp at 4 h amounted to 1.8. Further, the pKa in series [4] amounted to 3.7. Moreover, in series [21], the clearance came out at 5.3 mL/min/kg. Moreover, in series [22], the Vd amounted to 3.5 L/kg. Further, in [23], the half-life is 6.9 h. In series [1], this molecule came in with an area under the curve AUC(0-inf) of 3250 ng·h/mL. In addition, in [2], the Tmax was determined as 3.7 h. This molecule displayed a Cmax in series [3] of 215 ng/mL. In series [11], the bioavailability is 50%.

With `CC(C)OCc1nc(Nc2ccc(C(F)(F)F)nc2)c2ccc(-c3ncccc3C(F)(F)F)cc2n1`, the Stability entry in the series on Liver microsomes [5] and with Liver microsomes [6] was “Stable” each time.

For `FC(F)(F)c1ccc(Nc2ncnc3cc(-c4ncccc4C(F)(F)F)ccc23)cc1` [NGD-8243], in series [4], the pKa came to 4.54. For the same molecule, the clearance in [24] was found to be 23 mL/min/kg. Moreover, in series [25], the Vd amounted to 13 L/kg. Further, the half-life in [26] is 8 h. For the same molecule, the AUC(0-inf) amounted to 121 ng·h/mL in [1] and 1430 ng·h/mL in series [13]. Besides, the Tmax in [2] amounted to 3 h; in series [15], 0.67 h. Moreover, the Cmax in series [3] came out at 13 ng/mL; in series [17] it was 101 ng/mL. For the same molecule, the bioavailability in [11] worked out at 8%. Moreover, the F in the series with Rattus norvegicus is given as 99%.
